Assay results reported in publication PMC9321231.

Columns and labels:
[1] = system: lung carcinoma (A549) cells; test: Antiproliferative assay (MTT or SRB), A549; format: cell-based, human; details: for IC50: Homo sapiens, A549, A-549, read-out: IC50 ± SD, antiproliferative activity; for Calculated Selectivity Index SI: IC50 Balb/3T3 / IC50 A-549
Protocol: (§1) Cell preparation, an in vitro antiproliferative assay, and MTT and SRB cytotoxic tests were performed according to the literature.

[2] = target: T1, human neutrophil elastase (HNE) (Homo sapiens, UniProt P08246); test: Kinetic analysis of the inhibition of human neutrophil elastase (Lineweaver-Burk, Dixon, secondary plots); format: biochemical; details: for Inhibition Type: Lineweaver-Burk and Dixon analysis; for Kis (enzyme-substrate-inhibitor dissociation constant): secondary plot of intercept versus inhibitor concentration; for Ki: secondary plot of slope versus inhibitor concentration, read-out: Ki (enzyme-inhibitor dissociation constant)
T1 sequence (P08246 30-267): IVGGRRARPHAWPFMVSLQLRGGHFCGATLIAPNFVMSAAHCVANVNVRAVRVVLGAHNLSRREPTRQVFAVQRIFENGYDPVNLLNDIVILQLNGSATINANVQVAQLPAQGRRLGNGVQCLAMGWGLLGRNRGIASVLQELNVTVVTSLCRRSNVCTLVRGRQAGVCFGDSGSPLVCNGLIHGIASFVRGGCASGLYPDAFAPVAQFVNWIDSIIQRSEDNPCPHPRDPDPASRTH
Protocol: Next, kinetic analysis of the mechanism of inhibition of human neutrophil elastase by thiazoles 3a–3j was determined using double-reciprocal plots of Lineweaver-Burk plots and Dixon analysis.
The first model is one in which the inhibitor binds better to the free enzyme (competitive mechanism), while the second model is one in which the inhibitor binds better to the enzyme-substrate complex (non-competitive mechanism). Next the secondary plots of slope versus concentration of test compounds were plotted to determine the enzyme-inhibitor dissociation constants Ki, and similarly as was used to determine enzyme-substrate-inhibitor dissociation constants Kis, the secondary plots of intercept versus concentration of tested compounds were plotted.
Kinetic studies were conducted in the presence of different concentrations of substrate (5, 25, 50 and 100 µM) and test compounds (in the range of 0–500 nM). The reaction conditions were the same as in the HNE inhibition assay and the reaction was monitored for 10 min at 25 °C with the same Ex an Em wavelengths. By Lineweaver–Burk plots, kinetic values such as the Michaelis–Menten constants and maximum velocity were determined. Next, two inhibition constants for inhibitor binding with free enzyme or enzyme–substrate complex (Ki and Kis) were obtained by plotting the secondary plot of the slopes of the determined straight lines or vertical intercept (1/Vmax) versus inhibitor concentration.

[3] = system: normal mouse fibroblast (BALB/3T3) cells; test: Antiproliferative assay (MTT or SRB), normal fibroblasts BALB/3T3; format: cell-based; details: Balb/3T3 normal mouse fibroblasts; read-out: IC50 ± SD, antiproliferative activity
Protocol: Anticancer drugs are toxic to cancer cells, but also show some toxicity to healthy cells. […] The selectivity indexes for thiazoles 3a–3j against MV4-11 and A-549 cells were in general much higher than for MDA-MB-231 and UMUC-3 cells.
as §1

[4] = system: human breast adenocarcinoma (MDA-MB-231) cells; test: Antiproliferative assay (MTT or SRB), MDA-MB-231; format: cell-based; details: for IC50: Homo sapiens, MDA-MB-231, read-out: IC50 ± SD, antiproliferative activity; for Calculated Selectivity Index SI: IC50 Balb/3T3 / IC50 MDA-MB-231
Protocol: as §1

[5] = system: human biphenotypic B myelomonocytic leukemia (MV4-11) cells; test: Antiproliferative assay (MTT or SRB), MV4-11; format: cell-based; details: for IC50: Homo sapiens, MV4-11, MV-4-11, read-out: IC50 ± SD, antiproliferative activity; for Calculated Selectivity Index SI: IC50 Balb/3T3 / IC50 MV-4-11
Protocol: as §1

IC50 [1]	Inhibition Type [2]	Kis (enzyme-substrate-inhibitor dissociation constant) [2]	Ki [2]	IC50 [4]	IC50 [5]	SMILES	Calculated Selectivity Index SI [1]	IC50 [3]	Calculated Selectivity Index SI [4]	Calculated Selectivity Index SI [5]
6.32 ± 0.89 µM	mixed type I inhibition	240.00 nM	0.0358 µM	6.42 ± 1.7 µM	6.23 ± 0.42 µM	CCC1(CC)C(=O)N(c2ccc(-c3csc(Nc4ccc(S(N)(=O)=O)cc4)n3)cc2)C1=O [3e, 4-(4-(4-(3,3-Diethyl-2,4-dioxoazetidin-1-yl)phenyl)thiazol-2-ylamino)benzenesulfo-namide]	1.04	6.57 ± 0.21 µM	1.02	1.05
6.4 ± 0.08 µM	mixed type I inhibition	99.50 nM	0.0661 µM	6.38 ± 0.71 µM	4.59 ± 2.03 µM	CCC1(CC)C(=O)N(c2ccc(-c3csc(Nc4cc(OC)c(OC)c(OC)c4)n3)cc2)C1=O [3c, 3,3-Diethyl-1-(4-(2-(3,4,5-trimethoxyphenylamino)thiazol-4-yl)phenyl)azetidine-2,4-dione]	1.16	7.42 ± 1.04 µM	1.16	1.62
